Measurements published in patent publication US20250098679A1, “HERBICIDAL PYRIDONE DERIVATIVES” (SYNGENTA CROP PROTECTION AG, priority 2021, published 2025).

How the values were obtained:
Assay type in all cases: in vivo
Conditions in all cases: 1000 g/ha, evaluated after 13 days
[1] = test system: Setaria faberi (SETFA); assay: Pre-emergence Test, Setaria faberi (SETFA)
[2] = test system: Echinochloa crus-galli (ECHCG); assay: Pre-emergence Test, Echinochloa crus-galli (ECHCG)
[3] = test system: Zea mays (ZEAMX); assay: Pre-emergence Test, Zea mays (ZEAMX)
[4] = test system: Ipomoea hederacea (IPOHE); assay: Pre-emergence Test, Ipomoea hederacea (IPOHE)
[5] = test system: Amaranthus palmeri (AMAPA); assay: Pre-emergence Test, Amaranthus palmeri (AMAPA)
[6] = test system: Amaranthus retoflexus (AMARE); assay: Pre-emergence Test, Amaranthus retoflexus (AMARE)
[7] = test system: Setaria faberi (SETFA); assay: Post-emergence Test, Setaria faberi (SETFA); set-up: key to percentage damage caused to the plant, SETFA (five-point scale): 5=81-100%, 4=61-80%, 3=41-60%, 2=21-40%, 1=0-20% damage
Summary of the method: (§1)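 Pots sprayed with compound in acetone/water (50:50) with 0.5% Tween 20, at 1000 g/ha unless noted, glasshouse 24/16 °C, 14 h light, 65% humidity. Damage scored 13 days after spraying on a five-point scale (5=81-100% to 1=0-20%).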

[8] = test system: Echinochloa crus-galli (ECHCG); assay: Post-emergence Test, Echinochloa crus-galli (ECHCG); set-up: key to percentage damage caused to the plant, ECHCG (five-point scale): 5=81-100%, 4=61-80%, 3=41-60%, 2=21-40%, 1=0-20% damage
Summary of the method: as §1

[9] = test system: Zea mays (ZEAMX); assay: Post-emergence Test, Zea mays (ZEAMX); set-up: key to percentage damage caused to the plant, ZEAMX (five-point scale): 5=81-100%, 4=61-80%, 3=41-60%, 2=21-40%, 1=0-20% damage
Summary of the method: as §1

[10] = test system: Ipomoea hederacea (IPOHE); assay: Post-emergence Test, Ipomoea hederacea (IPOHE); set-up: key to percentage damage caused to the plant, IPOHE (five-point scale): 5=81-100%, 4=61-80%, 3=41-60%, 2=21-40%, 1=0-20% damage
Summary of the method: as §1

[11] = test system: Amaranthus palmeri (AMAPA); assay: Post-emergence Test, Amaranthus palmeri (AMAPA); set-up: key: 5=81-100%, 4=61-80%, 3=41-60%, 2=21-40%, 1=0-20% damage
Summary of the method: as §1

[12] = test system: Amaranthus retoflexus (AMARE); assay: Post-emergence Test, Amaranthus retoflexus (AMARE); set-up: key to percentage damage caused to the plant, AMARE (five-point scale): 5=81-100%, 4=61-80%, 3=41-60%, 2=21-40%, 1=0-20% damage
Summary of the method: as §1

## CCn1c(Cn2nc(C)cc2O)cc(=O)c(C(=O)O)c1-c1ccc(Cl)c(Cl)c1 [Compound 146, 2-(3,4-dichlorophenyl)-1-ethyl-6-[(5-hydroxy-3-methyl-pyrazol-1-yl)methy]-4-oxo-pyridine-3-carboxylic acid]
[1]
  Pre-emergence Test SETFA, percentage damage caused to the plant (five-point scale): 1 (1=0-20%)
[2]
  Pre-emergence Test ECHCG, percentage damage caused to the plant (five-point scale): 1 (1=0-20%)
[3]
  Pre-emergence Test ZEAMX, percentage damage caused to the plant (five-point scale): 0
[4]
  Pre-emergence Test IPOHE, percentage damage caused to the plant (five-point scale): 0
[5]
  Pre-emergence Test AMAPA, percentage damage caused to the plant (five-point scale): 0
[6]
  Pre-emergence Test AMARE, percentage damage caused to the plant (five-point scale): 0
[7]
  percentage damage caused to the plant, SETFA (five-point scale): 1 (1=0-20%)
[8]
  percentage damage caused to the plant, ECHCG (five-point scale): 0
[9]
  percentage damage caused to the plant, ZEAMX (five-point scale): 0
[10]
  percentage damage caused to the plant, IPOHE (five-point scale): 0
[11]
  percentage damage caused to the plant, AMAPA (five-point scale): 0
[12]
  percentage damage caused to the plant, AMARE (five-point scale): 0
